PubChem BioAssay (NCI)
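Growth conditions: 96-well plates. Treatment: test compound, 48 hours, 5 concentrations. Analysis: linear interpolation between bracketing concentrations; unreached endpoints set to highest concentration. The concentration for 50% growth inhibition is given as GI50. TGI is the concentration that stops growth completely.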

Legend:
Assay in all cases: DTP human tumour cell line panel, 48 h
M19-MEL melanoma = test system: M19-MEL melanoma
HCC-2998 colon = test system: HCC-2998 colon
HCT-116 colon = test system: HCT-116 colon
DMS 273 small cell lung = test system: DMS 273 small cell lung
XF 498 CNS = test system: XF 498 CNS
M14 melanoma = test system: M14 melanoma
SR leukemia = test system: SR leukemia
HOP-62 NSCLC = test system: HOP-62 NSCLC
HT29 colon = test system: HT29 colon
SNB-78 CNS = test system: SNB-78 CNS

Compound	TGI (M19-MEL melanoma) [µM]	TGI (HCC-2998 colon) [µM]	TGI (HCT-116 colon) [µM]	TGI (DMS 273 small cell lung) [µM]	TGI (XF 498 CNS) [µM]	TGI (M14 melanoma) [µM]	TGI (SR leukemia) [µM]	TGI (HOP-62 NSCLC) [µM]	TGI (HT29 colon) [µM]	TGI (SNB-78 CNS) [µM]	GI50 (HCC-2998 colon) [µM]	GI50 (HCT-116 colon) [µM]	GI50 (M14 melanoma) [µM]	GI50 (SR leukemia) [µM]	GI50 (HOP-62 NSCLC) [µM]	GI50 (HT29 colon) [µM]
COC(=O)c1c(CC#N)cccc1CC#N	> 100	> 100	> 100	> 100	> 100	> 100	> 100	> 100	> 100	–	–	–	–	–	–	–
CC(C(=O)Oc1ccc2ccccc2c1-c1c(O)ccc2ccccc12)c1ccccc1 (stereo unspecified)	30.6	28.9	25.6	–	27.3	27.7	–	29.8	28.8	33.9	–	–	–	–	–	–
Cc1c2cc[nH]c(=O)c2cc2c(=O)c3cnccc3[nH]c12	> 100	> 100	> 100	> 100	–	> 100	–	> 100	> 100	> 100	–	–	–	–	–	–
CN(c1ccccc1)C(c1ccccc1)C(O)c1ccccc1 (stereo unspecified)	42.4	38.8	33.7	34	–	30.4	49.8	38	32.9	59.6	–	–	–	–	–	–
CCOC(=O)C(C)c1cc(C2(C)OCCO2)c(C)o1 (stereo unspecified)	> 100	> 100	> 100	> 100	> 100	> 100	–	> 100	–	> 100	–	–	–	–	–	–
CC(=O)OCC1OC(n2c(=O)n(-c3ccccc3)c(=O)c3ccccc32)C(OC(C)=O)C(OC(C)=O)C1OC(C)=O (stereo unspecified)	> 100	> 100	> 100	> 100	–	> 100	–	> 100	> 100	> 100	–	–	–	–	–	–
Cc1cc(C)nc(Nc2nc3ccc([N+](=O)[O-])cc3[nH]2)n1	–	> 100	> 100	> 100	> 100	> 100	> 100	> 100	> 100	> 100	–	–	–	–	–	–
O=C1c2ccccc2-c2c1c1ccccc1c(=O)n2CCCN1CCOCC1	–	> 100	31.8	–	–	> 100	> 100	18.7	> 100	–	> 40.1	13.6	99.2	12.2	6.22	> 100
Nc1c(-c2nc3ccccc3[nH]2)sc(=S)n1-c1ccccc1	> 100	> 100	> 100	> 100	–	> 100	86.5	> 100	> 100	> 100	–	–	–	–	–	–
O=C(NC(=S)Nc1ccc(Cl)cc1)c1ccccc1	–	> 100	> 100	–	–	> 100	> 100	> 100	> 100	–	> 100	> 100	> 100	> 100	> 61.7	> 100
CN(C)c1ccc2c3c(c(=O)oc2c1)CCC3	–	> 100	> 100	–	–	> 100	> 100	> 100	> 100	–	–	–	–	–	–	–
C=C1C(=O)O[C@H]2[C@H]1CC/C(Cn1cc(-c3ccccc3)nn1)=C\CC[C@@]1(C)O[C@@H]21	–	13	2.7	–	–	7.6	6.44	15.1	6.3	–	6.16	1.17	1.78	1.06	7.41	1.79
O=C(O)C12C3CCCC1C2CC3 (stereo unspecified)	> 100	–	> 100	–	> 100	> 100	> 100	> 100	> 100	> 100	–	–	–	–	–	–
O=C1OC2(c3ccccc3Oc3ccccc32)c2ccccc21	> 100	> 100	> 100	> 100	–	> 100	> 100	> 100	> 100	> 100	–	–	–	–	–	–
O=C1OC(=O)C2C1C1(c3ccccc3)C(c3ccccc3)=C(c3ccccc3)C2(c2ccccc2)S1=O (stereo unspecified)	–	> 100	> 100	–	–	> 100	> 100	> 100	> 100	–	> 100	> 100	> 100	49.3	> 100	> 100
COC(=O)C1=C(O)C(O)=C(C(=O)OC)C1	> 100	> 100	> 100	> 100	–	> 100	–	> 100	> 100	> 100	–	–	–	–	–	–
c1ccc(N=C2c3ccccc3C3=NCCCN32)cc1	> 100	> 100	> 100	> 100	> 100	> 100	–	> 100	> 100	> 100	–	–	–	–	–	–
